Measurements as given in ChEMBL document CHEMBL5154872 (Eur J Med Chem, 2022).
Values after ≈ are worked out from the molar mass of the structure shown. Blank lines part the entries; values can stand above or below the molecule they belong to.

Experiments:
[1] = 1-Octanol/phosphate buffered-saline distribution coefficient, logD of compound at pH 7.4 measured after 2 hrs by LC-MS analysis; assay type: physicochemical
[2] = Stability in CD-1 mouse plasma assessed as half-ife at 10 uM; assay type: ADME, cell-free
[3] = biological target: T1, Programmed cell death 1 ligand 1 (Homo sapiens, UniProt Q9NZQ7); assay: Binding affinity towards His-tagged recombinant human PD-L1 measured by MST dimerization binding assay; assay type: single protein
[4] = Reactivation of mouse CTLL-2 cells pretreated with human PD-L1 assessed as increase in cell proliferation and measured by flow cytometry assay; assay type: functional, cell-based
[5] = Solubility in PBS at pH 7.4; assay type: physicochemical
[6] = biological target: T1, Programmed cell death 1 ligand 1; assay: Binding affinity towards His-tagged recombinant human PD-L1 measured by MicroScale Thermophoresis (MST) assay
[7] = biological target: Programmed cell death protein 1/Programmed cell death 1 ligand 1 (Homo sapiens, UniProt Q9NZQ7); assay: Inhibition of human PD-1/PD-L1 interaction in CHO-K1 cells transfected with PD-1-YFP/SHP-2-CFP and measured by FRET assay; assay type: cell-based
Sequence of Programmed cell death protein 1/Programmed cell death 1 ligand 1 (Q15116 whole entry): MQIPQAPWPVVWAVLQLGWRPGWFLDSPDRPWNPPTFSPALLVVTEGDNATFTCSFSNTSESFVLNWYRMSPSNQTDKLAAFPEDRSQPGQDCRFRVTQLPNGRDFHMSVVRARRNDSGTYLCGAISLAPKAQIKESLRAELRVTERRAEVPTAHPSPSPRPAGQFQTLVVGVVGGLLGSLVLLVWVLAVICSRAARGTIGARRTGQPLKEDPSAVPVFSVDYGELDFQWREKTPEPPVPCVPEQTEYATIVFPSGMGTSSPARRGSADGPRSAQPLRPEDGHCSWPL
Sequence of Programmed cell death protein 1/Programmed cell death 1 ligand 1 (Q9NZQ7 whole entry): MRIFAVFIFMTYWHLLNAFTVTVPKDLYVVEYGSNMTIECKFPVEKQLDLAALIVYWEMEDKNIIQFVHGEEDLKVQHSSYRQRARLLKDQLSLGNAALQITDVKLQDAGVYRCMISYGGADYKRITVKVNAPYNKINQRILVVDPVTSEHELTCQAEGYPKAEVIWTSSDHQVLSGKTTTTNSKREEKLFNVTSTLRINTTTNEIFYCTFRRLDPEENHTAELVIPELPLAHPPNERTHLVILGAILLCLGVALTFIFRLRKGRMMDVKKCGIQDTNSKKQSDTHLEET

T1 sequence (Q9NZQ7 whole entry): as above

- logD at 2 h [1]: 0.85
- half-life at 10 µM [2]: 16 min
- solubility [5]: > 200 µM
Structure (SMILES): CC1=NN(c2ccccn2)C(=O)C1
- Kd [3]: 53 nM
- IC50 [4]: 102 nM

- logD at 2 h [1]: 2.82
- half-life at 10 µM [2]: 12 min
- solubility [5]: 199 µM (≈ 53.2 µg/mL)
Structure (SMILES): COc1ccc(C2=NN(c3ccccn3)C(=O)C2)cc1
- Kd [3]: 2 nM
- IC50 [4]: 75 nM

Structure (SMILES): CCC1=NN(c2ccccn2)C(=O)C1
- Kd [6]: > 500000 nM

- logD at 2 h [1]: 2.56
- half-life at 10 µM [2]: 10.9 min
- solubility [5]: 80.9 µM (≈ 21.6 µg/mL)
Structure (SMILES): COc1ccccc1C1=NN(c2ccccn2)C(=O)C1
- Kd [3]: 46 nM
- IC50 [4]: 14 nM

Structure (SMILES): Cc1ccccc1C1=NN(c2ccccn2)C(=O)C1
- Kd [6]: > 500000 nM

Structure (SMILES): O=C1CC(c2ccc(C(F)(F)F)cc2)=NN1c1ccccn1
- IC50 [7]: 143 nM
- Kd [6]: 156 nM

Structure (SMILES): O=C1CC(c2ccccc2Cl)=NN1c1ccccn1
- Kd [6]: > 500000 nM

Structure (SMILES): O=C1CC(c2ccccn2)=NN1c1ccccn1
- Kd [6]: > 500000 nM

Structure (SMILES): Cc1ccc(C2=NN(c3ccccn3)C(=O)C2)cc1
- Kd [6]: 1090 nM

Structure (SMILES): O=C1CC(c2ccccc2F)=NN1c1ccccn1
- Kd [6]: > 500000 nM

Structure (SMILES): O=C1CC(c2ccc(Cl)c(Cl)c2)=NN1c1ccccn1
- Kd [6]: 584 nM

Structure (SMILES): O=C1CC(C23CC4CC(CC(C4)C2)C3)=NN1c1ccc(Cl)cc1Cl
- logD at 2 h [1]: 4.28
- half-life at 10 µM [2]: 31 min
- Kd [3]: 24 nM
- IC50 [7]: 9 nM
- IC50 [4]: 54 nM
- solubility [5]: 1.9 µM (≈ 0.69 µg/mL)

Structure (SMILES): O=C1CC(c2cccc(Cl)c2)=NN1c1ccccn1
- Kd [6]: > 500000 nM

Structure (SMILES): Cc1cccc(C2=NN(c3ccccn3)C(=O)C2)c1
- Kd [6]: > 500000 nM

Structure (SMILES): CCCC1=NN(c2ccccn2)C(=O)C1
- Kd [6]: > 500000 nM

Structure (SMILES): CCCCC1=NN(c2ccccn2)C(=O)C1
- Kd [6]: > 500000 nM

Structure (SMILES): CC(C)C1=NN(c2ccccn2)C(=O)C1
- Kd [6]: > 500000 nM

- logD at 2 h [1]: 2.19
- half-life at 10 µM [2]: 30 min
- solubility [5]: 183 µM (≈ 54.4 µg/mL)
Structure (SMILES): COc1ccc(C2=NN(c3ccccn3)C(=O)C2)cc1OC
- Kd [3]: 0.7 nM
- IC50 [7]: 7.3 nM
- Kd [6]: 1.19 nM
- IC50 [4]: 4.1 nM

Structure (SMILES): CC(C)(C)C1=NN(c2ccccn2)C(=O)C1
- Kd [6]: > 500000 nM
